Assay [1] has as its system Prunus dulcis. In words: Percent inhibition against Beta Glucosidase from Almonds at 1 mM.
The target in assay [2] is T1, Alpha-glucosidase (Oryza sativa Japonica Group) (UniProt Q9LGC6).
T1 sequence (whole entry): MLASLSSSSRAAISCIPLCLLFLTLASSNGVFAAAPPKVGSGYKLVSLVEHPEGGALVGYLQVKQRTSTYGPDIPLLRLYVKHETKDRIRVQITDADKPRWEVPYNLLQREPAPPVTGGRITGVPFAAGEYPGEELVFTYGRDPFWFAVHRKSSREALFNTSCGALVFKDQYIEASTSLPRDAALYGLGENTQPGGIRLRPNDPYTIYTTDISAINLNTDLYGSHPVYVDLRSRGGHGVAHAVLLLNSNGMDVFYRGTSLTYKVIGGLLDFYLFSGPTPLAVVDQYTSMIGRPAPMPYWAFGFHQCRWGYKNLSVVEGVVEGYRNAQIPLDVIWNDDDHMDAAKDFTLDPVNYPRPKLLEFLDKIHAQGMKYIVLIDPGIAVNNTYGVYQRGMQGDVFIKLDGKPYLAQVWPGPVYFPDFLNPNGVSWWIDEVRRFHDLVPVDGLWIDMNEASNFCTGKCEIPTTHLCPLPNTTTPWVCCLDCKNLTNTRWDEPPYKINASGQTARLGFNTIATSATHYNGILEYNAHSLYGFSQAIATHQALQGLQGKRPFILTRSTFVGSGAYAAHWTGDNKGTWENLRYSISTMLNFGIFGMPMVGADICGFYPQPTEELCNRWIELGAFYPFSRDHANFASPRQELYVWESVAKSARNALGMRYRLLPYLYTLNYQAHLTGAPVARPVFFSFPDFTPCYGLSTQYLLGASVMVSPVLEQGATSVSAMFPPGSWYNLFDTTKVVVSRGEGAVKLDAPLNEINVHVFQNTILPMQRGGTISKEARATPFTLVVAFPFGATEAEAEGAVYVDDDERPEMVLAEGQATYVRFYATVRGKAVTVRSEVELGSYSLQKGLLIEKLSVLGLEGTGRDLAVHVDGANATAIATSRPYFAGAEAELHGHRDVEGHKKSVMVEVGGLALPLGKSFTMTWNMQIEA
In words: Inhibition against Alpha Glucosidase from rice at 1 mM; (ni=no inhibition).

In assay [3] the target is Glucoamylase (Aspergillus niger) (UniProt P69328). In words: Inhibition against Amyloglucosidase from Aspergillus niger at 1 mM; (ni=no inhibition).
Assay [4] in a line: Inhibitory concentration against Beta Glucosidase from Almonds. Also on record: species or system Prunus dulcis.
For assay [5], the target named is T2, Exo-1,4-beta-xylosidase xlnD (Aspergillus niger) (UniProt O00089).
T2 sequence (whole entry): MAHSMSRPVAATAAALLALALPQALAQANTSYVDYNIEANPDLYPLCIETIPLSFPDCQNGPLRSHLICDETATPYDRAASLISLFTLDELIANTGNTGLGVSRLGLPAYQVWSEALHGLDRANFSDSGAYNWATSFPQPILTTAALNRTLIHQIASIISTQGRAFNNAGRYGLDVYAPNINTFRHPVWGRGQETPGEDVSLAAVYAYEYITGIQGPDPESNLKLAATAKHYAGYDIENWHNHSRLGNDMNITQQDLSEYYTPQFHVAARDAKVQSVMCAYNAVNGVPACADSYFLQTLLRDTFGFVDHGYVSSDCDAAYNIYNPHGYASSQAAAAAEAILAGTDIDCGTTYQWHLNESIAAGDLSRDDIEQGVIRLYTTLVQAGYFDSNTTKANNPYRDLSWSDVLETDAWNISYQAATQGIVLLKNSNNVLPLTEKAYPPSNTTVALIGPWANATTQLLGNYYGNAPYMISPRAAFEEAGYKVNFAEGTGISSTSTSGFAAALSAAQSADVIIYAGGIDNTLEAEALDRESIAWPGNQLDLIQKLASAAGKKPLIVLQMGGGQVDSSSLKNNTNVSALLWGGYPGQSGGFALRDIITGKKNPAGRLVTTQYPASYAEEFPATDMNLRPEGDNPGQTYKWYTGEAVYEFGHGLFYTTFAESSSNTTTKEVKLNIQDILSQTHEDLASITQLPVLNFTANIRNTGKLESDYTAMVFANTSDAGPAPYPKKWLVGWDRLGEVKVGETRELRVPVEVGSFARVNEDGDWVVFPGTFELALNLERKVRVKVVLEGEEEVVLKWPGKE
Description: Inhibition against Beta-xylosidase from Aspergillus niger at 1 mM; (ni=no inhibition).

Assay [6] is described as follows: Inhibition against Alpha Glucosidase from yeast at 1 mM; (ni=no inhibition).
For assay [7], the target named is T3, Glucoamylase 1 (Rhizopus oryzae) (UniProt P07683).
T3 sequence (whole entry): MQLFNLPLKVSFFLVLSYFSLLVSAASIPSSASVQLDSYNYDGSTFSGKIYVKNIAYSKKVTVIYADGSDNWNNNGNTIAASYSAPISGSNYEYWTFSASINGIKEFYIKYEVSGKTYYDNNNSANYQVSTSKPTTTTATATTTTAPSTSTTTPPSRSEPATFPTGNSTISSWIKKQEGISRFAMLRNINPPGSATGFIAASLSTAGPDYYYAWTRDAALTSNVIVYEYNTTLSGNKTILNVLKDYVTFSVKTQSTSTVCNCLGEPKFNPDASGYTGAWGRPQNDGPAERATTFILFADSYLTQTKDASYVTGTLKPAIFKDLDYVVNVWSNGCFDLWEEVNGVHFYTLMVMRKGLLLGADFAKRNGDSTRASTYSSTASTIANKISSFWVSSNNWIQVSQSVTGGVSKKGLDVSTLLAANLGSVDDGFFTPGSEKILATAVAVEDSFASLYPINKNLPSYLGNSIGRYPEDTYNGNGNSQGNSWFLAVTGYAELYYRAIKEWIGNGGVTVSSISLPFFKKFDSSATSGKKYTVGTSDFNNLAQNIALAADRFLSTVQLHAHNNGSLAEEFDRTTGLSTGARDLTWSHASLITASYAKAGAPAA
In words: Inhibition against Amyloglucosidase from Rhizopus mold at 1 mM; (ni=no inhibition).

In assay [8] the test system is Prunus dulcis. Description: Inhibition against Beta Glucosidase from Almonds at 1 mM; (ni=no inhibition).
In assay [9] the target is Beta-glucosidase A (Caldicellulosiruptor saccharolyticus) (UniProt P10482). Description: Percent inhibition against Beta Glucosidase from Caldocellum saccharolyticum at 1 mM.
The target is the same in assay [10]. Description: Inhibition against Beta Glucosidase from Caldocellum saccharolyticum at 1 mM; (ni=no inhibition).
The target in assay [11] is Glucoamylase (Aspergillus niger) (UniProt P69328). In words: Percent inhibition against Amyloglucosidase from Aspergillus niger at 1 mM concentration.
Assay [12] concerns the target T3, Glucoamylase 1 (Rhizopus oryzae). Description: Percent inhibition against Amyloglucosidase from Rhizopus mold at 1 mM.

Activity calls are given as the source filed them. The calls are words filed in the database; no cut-off is given here.

Beta-glucosidase A (Caldicellulosiruptor saccharolyticus), sequence (P10482 whole entry): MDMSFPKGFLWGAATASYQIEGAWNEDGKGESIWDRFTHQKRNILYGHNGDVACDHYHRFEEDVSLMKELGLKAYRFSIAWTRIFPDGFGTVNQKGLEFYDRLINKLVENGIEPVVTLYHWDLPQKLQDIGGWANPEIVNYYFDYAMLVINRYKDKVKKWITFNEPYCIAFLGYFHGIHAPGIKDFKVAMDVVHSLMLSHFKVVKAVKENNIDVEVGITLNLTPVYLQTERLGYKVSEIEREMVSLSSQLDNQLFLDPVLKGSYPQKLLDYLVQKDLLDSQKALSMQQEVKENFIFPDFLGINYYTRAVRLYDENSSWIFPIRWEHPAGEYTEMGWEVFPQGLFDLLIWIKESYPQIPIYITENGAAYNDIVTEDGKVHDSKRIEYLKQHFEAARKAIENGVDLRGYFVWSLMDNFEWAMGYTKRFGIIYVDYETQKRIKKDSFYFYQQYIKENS
Glucoamylase (Aspergillus niger), sequence (P69328 whole entry): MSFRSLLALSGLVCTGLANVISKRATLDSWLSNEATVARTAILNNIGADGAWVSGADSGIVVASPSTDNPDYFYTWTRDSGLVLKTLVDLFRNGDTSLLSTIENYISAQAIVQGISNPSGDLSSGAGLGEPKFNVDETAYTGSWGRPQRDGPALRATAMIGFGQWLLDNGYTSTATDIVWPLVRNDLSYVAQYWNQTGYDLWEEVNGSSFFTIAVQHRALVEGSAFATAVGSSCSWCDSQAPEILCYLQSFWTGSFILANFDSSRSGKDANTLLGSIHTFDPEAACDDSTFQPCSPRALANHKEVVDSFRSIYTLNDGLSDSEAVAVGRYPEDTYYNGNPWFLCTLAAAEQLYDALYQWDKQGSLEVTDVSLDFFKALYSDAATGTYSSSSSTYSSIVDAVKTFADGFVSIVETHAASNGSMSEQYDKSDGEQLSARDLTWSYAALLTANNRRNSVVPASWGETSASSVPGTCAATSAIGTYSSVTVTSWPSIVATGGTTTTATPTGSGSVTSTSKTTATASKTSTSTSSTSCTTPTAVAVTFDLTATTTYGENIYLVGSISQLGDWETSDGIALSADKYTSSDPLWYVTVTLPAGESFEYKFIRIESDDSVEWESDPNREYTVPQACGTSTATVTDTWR

Usually inhibition stands for the drop in the measured response relative to a control, in per cent. A word on the IC50: it is the concentration that inhibits the measured activity by half. A low value points to greater potency in that assay. `OC1C=CC(NCCc2ccccc2)C(O)C1O` (racemic): the inhibition in the assay with Prunus dulcis [1] was found to be 86%. Moreover, the inhibition entry in assay [2], in assay [3], in assay [5], in [6] and in assay [7] was “inactive” each time. The same compound had a half-inhibitory concentration (IC50) in [4] of 32 µM.
Compound `CCCCCCNC1C=CC(O)C(O)C1O` (racemic) registered an inhibition with Prunus dulcis [1] of 92%. The inhibition result in assay [2], in [3], in [5], in [6] and in [7] was “inactive” in each case. For the same compound, half-maximal inhibition in assay [4] (IC50) was put at 32 µM.
Take `CCCCCCCCN(CCCCCCCC)C1C=CC(O)C(O)C1O` (racemic): the inhibition result (in the assay on Prunus dulcis [8]; in [2]; in assay [3]; in [5]; in assay [6]; in assay [7]) was “inactive” in each case. In assay [9], this compound came in with an inhibition of 83%.
For `CCCN(CCC)C1C=CC(O)C(O)C1O` (racemic), the inhibition in the assay on Prunus dulcis [1] was 36%. Also, the inhibition entry in [2], in assay [3], in assay [10], in assay [5], in [6] and in [7] was “inactive” each time.
In turn, `OC1C=CC(N(CCc2ccccc2)CCc2ccccc2)C(O)C1O` (racemic) had an inhibition in the assay with Prunus dulcis [1] of 36%. The inhibition result in [2], in assay [3], in assay [10], in assay [5], in assay [6] and in assay [7] was “inactive” throughout.
As for `COc1cc(O)c(CNC2C=CC(O)C(O)C2O)c(Br)c1` (single isomer, unassigned), the inhibition entry (with Prunus dulcis [8]; in assay [2]; in assay [3]; in assay [10]; in assay [5]; in assay [6]) was “inactive” each time. In assay [7], the inhibition entry is “inactive”.
In the case of `NC1C=CC(O)C(O)C1O` (single isomer, unassigned; (-)), the inhibition entry (with Prunus dulcis [8]; in [2]; in assay [3]; in [10]; in assay [5]; in [6]) was “inactive” in each case. Further, in assay [7], the inhibition entry is “inactive”.
Consider `OC1C=CC(NCc2ccc(-c3ccccc3)cc2)C(O)C1O` (stereo in doubt), for which the inhibition in the assay with Prunus dulcis [1] is 56%. In addition, the inhibition result in assay [2], in [3], in assay [10], in assay [5], in assay [6] and in assay [7] was “inactive” in each case.
Turning to `OC1C=CC(NCc2ccc(Oc3ccccc3)cc2)C(O)C1O` (stereo in doubt), the inhibition result (with Prunus dulcis [8]; in [2]; in assay [3]; in assay [10]; in assay [5]; in [6]) was “inactive” throughout. Further, the inhibition result in assay [7] is “inactive”.
Turning to `OC1C=CC(NCc2ccccc2)C(O)C1O` (stereo in doubt), the inhibition is 51% with Prunus dulcis [1], 63% in assay [11] and 72% in assay [12]. The inhibition entry in assay [2], in [10], in assay [5] and in [6] was “inactive” each time.
For `Oc1ccc(CNC2C=CC(O)C(O)C2O)cc1` (stereo in doubt; 4f), in [4], the 50% inhibitory concentration (IC50) was 72 µM.
Turning to `OC1C=CC(NCc2ccc(Cl)cc2)C(O)C1O` (stereo in doubt; 4h), the inhibition with Prunus dulcis [1] worked out at 96%; in assay [9], 84%. In addition, the inhibition result in assay [2], in assay [3], in [5], in assay [6] and in assay [7] was “inactive” each time.
For `OC1C=CC(NCc2ccc(-c3ccccc3)cc2)C(O)C1O` (stereo in doubt; 4i), the inhibition in the assay on Prunus dulcis [1] turned out to be 97%; in [9], 94%. Moreover, the inhibition entry in assay [2], in assay [3], in assay [5], in [6] and in assay [7] was “inactive” throughout.
Take `OC1C=CC(NCc2ccc(Oc3ccccc3)cc2)C(O)C1O` (stereo in doubt; 4j): the inhibition in the assay on Prunus dulcis [1] is 97%; in assay [9], 71%. In addition, the inhibition entry in assay [2], in assay [3], in [5], in assay [6] and in assay [7] was “inactive” throughout.
With `COc1cc(O)c(CNC2C=CC(O)C(O)C2O)c(Br)c1` (stereo in doubt; 4l), the inhibition entry (in the assay with Prunus dulcis [8]; in [2]; in [3]; in [5]; in assay [6]; in assay [7]) was “inactive” each time. The inhibition in [9] turned out to be 43%.
Consider `NC1C=CC(O)C(O)C1O` (stereo in doubt; (+)-3), for which the inhibition entry (in the assay on Prunus dulcis [8]; in [2]; in assay [3]; in assay [10]; in assay [5]; in assay [6]) was “inactive” throughout. Moreover, the inhibition result in [7] was “inactive”.
